From patent US20170172994A1, “COMPOSITIONS AND METHODS FOR TREATING BACTERIAL INFECTIONS” (WOCKHARDT LIMITED, priority 2013, published 2017)
Like-named read-outs stand apart in the source and are kept apart here.

Assays:
P. mirabilis G 186 [1] = experiment: MIC determination; type: cell-based; conditions: Proteus mirabilis, G186; P. mirabilis G 186 (NDM, TEM)
Description: (§1) In a typical procedure for determining MIC values, overnight grown bacterial cultures were diluted appropriately and inoculated on the agar media containing doubling concentrations of the test compounds. Observation for growth or no growth was performed after 16-20 hours of incubation at 35±2° C. in ambient air. The overall procedure was performed as per Clinical and Laboratory Standards Institute (CLSI) recommendations (Clinical and Laboratory Standards Institute (CLSI), Performance Standards for Antimicrobial Susceptibility Testing, 20th Informational Supplement, M 100-S20, Volume 30, No. 1, 2010).

K. pneumoniae B88 = experiment: MIC determination; type: cell-based; conditions: Klebsiella pneumoniae; K. pneumoniae B88 (NDM, SHV, TEM)
Description: as §1

[2] = tested on: K. pneumonia S48 expressing multiple ESBLs including MBL (NDM4) and Class A (CTX-M, SHV, TEM); type: cell-based, K. pneumoniae; conditions: Cefepime 8 μg/ml, Compound of Formula (III) 2 μg/ml, Clavulanic acid 2 μg/ml, Mecillinam 2 μg/ml, Imipenem 8 μg/ml
Description: Log phase cultures were diluted to desired inoculums in flasks with MHB, containing various drug concentrations. Flasks were incubated at 35° C. in orbital shaker with rotational speed of 125 rpm. […] Plates were incubated for 24 hours at 35° C. and colonies were enumerated to determine the colony forming units (CFU) per ml volume.

K pneumoniae J 101 = experiment: MIC determination (agar dilution, CLSI); type: cell-based; conditions: K pneumoniae J 101 (TEM1, SHV12, OMP); standalone
Description: as §1

K pneumoniae J 102 = experiment: MIC determination (agar dilution, CLSI); type: cell-based; conditions: K pneumoniae J 102 (TEM1, SHV5, OMP); standalone
Description: as §1

K pneumoniae J 104 = experiment: MIC determination (agar dilution, CLSI); type: cell-based; conditions: K pneumoniae J 104 (TEM1, SHV11, CTX-M, OMP); standalone
Description: as §1

K pneumoniae J 105 = experiment: MIC determination (agar dilution, CLSI); type: cell-based; conditions: K pneumoniae J 105 (TEM1, SHV2, CTX-M, OMP); standalone
Description: as §1

Pseudomonas PBP 1A = biological target: T1, Pseudomonas PBP 1A (Pseudomonas aeruginosa, UniProt Q07806); experiment: PBP binding assay (Bocillin FL competition); conditions: Pseudomonas PBP 1A; read-out: IC50 (converted)
T1 construct: endogenous in cells
T1 sequence (Q07806 whole entry): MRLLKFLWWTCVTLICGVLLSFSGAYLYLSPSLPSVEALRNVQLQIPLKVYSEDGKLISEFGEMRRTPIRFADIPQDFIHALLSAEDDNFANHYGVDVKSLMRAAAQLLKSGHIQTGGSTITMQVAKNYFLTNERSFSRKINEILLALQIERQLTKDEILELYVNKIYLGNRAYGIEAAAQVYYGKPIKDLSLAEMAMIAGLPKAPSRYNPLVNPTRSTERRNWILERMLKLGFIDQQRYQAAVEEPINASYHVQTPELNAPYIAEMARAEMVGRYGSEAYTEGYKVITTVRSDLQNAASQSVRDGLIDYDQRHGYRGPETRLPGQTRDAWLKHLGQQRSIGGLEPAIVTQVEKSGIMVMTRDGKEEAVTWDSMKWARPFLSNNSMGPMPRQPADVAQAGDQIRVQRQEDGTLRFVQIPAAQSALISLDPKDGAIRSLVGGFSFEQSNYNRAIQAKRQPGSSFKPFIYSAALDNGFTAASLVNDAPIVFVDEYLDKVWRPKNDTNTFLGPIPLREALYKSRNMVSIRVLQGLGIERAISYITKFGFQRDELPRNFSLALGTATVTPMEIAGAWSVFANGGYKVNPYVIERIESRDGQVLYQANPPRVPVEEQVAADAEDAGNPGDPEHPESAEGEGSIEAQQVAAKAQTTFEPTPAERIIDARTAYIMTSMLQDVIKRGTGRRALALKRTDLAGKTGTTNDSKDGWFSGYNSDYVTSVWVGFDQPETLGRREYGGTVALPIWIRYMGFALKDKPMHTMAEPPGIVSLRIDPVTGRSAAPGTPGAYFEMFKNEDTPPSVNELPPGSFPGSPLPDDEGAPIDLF
Description: (§2) The phrase “selective and high affinity PBP binder” refers to a PBP binder which binds to only one PBP with very high affinity. In general, the term “selective and high affinity PBP binder” also includes those binders where a substantial fraction of binder selectively binds to only one PBP with high affinity. […]. The term “IC50 value” of a compound refers to the concentration of the compound that reduces the binding of Bocillin-FL to PBPs by 50% as compared to when no compound was added to the reaction.
(§3) A compound of Formula (III) was prepared using the procedure disclosed in PCT International Application No. PCT/IB2012/054290 and was evaluated for its PBP binding affinity profile. […] The reaction mixtures were then denatured with 20 μl each of SDS-denaturing solution at 100° C. for 3 min PBPs were separated through 10% SDS polyacrylamide gel electrophoresis (Bio-Rad Laboratories, Hercules, Calif.). The protein gels were rinsed in water immediately after electrophoresis. […] […].

Pseudomonas PBP 5/6 = Pseudomonas PBP 5/6 (Pseudomonas aeruginosa, UniProt G3XD74); experiment: PBP binding assay (Bocillin FL competition); conditions: read-out: IC50
Sequence of Pseudomonas PBP 5/6 (G3XD74 entry or part of it): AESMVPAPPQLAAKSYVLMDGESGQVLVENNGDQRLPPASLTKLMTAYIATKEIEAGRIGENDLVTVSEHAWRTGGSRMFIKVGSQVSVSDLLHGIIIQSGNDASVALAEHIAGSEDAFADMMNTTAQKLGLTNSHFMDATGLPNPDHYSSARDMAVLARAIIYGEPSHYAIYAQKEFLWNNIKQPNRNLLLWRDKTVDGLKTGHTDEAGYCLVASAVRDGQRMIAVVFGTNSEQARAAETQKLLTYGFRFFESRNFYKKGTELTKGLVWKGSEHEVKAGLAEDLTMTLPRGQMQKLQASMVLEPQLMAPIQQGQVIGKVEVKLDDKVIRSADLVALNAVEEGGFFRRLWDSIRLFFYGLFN
Description: as §2, §3

E. coli ATCC 25922 = experiment: Microbiological drug diffusion assay, standalone compounds in absence of beta-lactamase enzymes; type: cell-based; conditions: Escherichia coli, ATCC25922, 40 μg/ml, no beta-lactamase, read-out: Inhibition zone diameter
Description: Next, the beta-lactamase stability of some of these compounds was evaluated. In a typical stability study, ESBL enzymes from K. pneumoniae S48 producing Metalo betalactamase (NDM4) and Class A (CTX-M, SHV, TEM) beta-lactamase were isolated from freshly grown culture by 5 repetitive cycles of freeze and thaw in liquid nitrogen. […] After the stipulated incubation duration, the test compounds were extracted from the reaction mixture by the addition of 0.5 ml of Acetonitrile in 1:1 ratio (final concentration of test compound—40 μg/ml) and centrifuged at 12000 rpm for 2 min to separate precipitated protein. The activity of test compounds was measured from the supernatant by performing microbiological drug diffusion assay. For drug diffusion assay, Muller-Hinton Agar (MHA) seeded with E. coli ATCC 25922 was poured on to a bioassay plate placed on a flat surface and allowed to solidify. Appropriate concentration of the standalone and enzyme treated test compound dilutions were added to 6 mm wells cut with the help of a borer. The antibacterial activity of the test compounds was measured in terms of zones of inhibition appearing after 18-24 hours of incubation at 37° C. Measurement of diameter of zone of inhibition was undertaken to the nearest whole value with the help of ruler.

Pseudomonas PBP 3 = biological target: T2, Pseudomonas PBP 3 (Pseudomonas aeruginosa, UniProt G3XD46); experiment: biochemical; type: binding
T2 construct: endogenous in cells
T2 sequence (G3XD46 whole entry): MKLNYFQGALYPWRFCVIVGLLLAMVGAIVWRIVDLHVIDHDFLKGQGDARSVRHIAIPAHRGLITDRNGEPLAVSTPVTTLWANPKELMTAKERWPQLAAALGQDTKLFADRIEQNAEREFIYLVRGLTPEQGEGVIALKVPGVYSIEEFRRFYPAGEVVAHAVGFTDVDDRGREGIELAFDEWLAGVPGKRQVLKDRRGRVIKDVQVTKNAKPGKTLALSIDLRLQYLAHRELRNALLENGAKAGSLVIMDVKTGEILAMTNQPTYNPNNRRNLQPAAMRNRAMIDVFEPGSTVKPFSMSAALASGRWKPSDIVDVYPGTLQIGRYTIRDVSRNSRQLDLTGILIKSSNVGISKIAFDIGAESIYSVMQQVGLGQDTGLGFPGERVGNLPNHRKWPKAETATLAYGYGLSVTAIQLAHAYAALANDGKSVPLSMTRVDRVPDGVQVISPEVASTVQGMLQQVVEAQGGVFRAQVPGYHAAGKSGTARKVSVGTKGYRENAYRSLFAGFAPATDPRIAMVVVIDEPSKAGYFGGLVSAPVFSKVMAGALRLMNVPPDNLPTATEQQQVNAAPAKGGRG
Description: The phrase “selective and high affinity PBP binder” refers to a PBP binder which binds to only one PBP with very high affinity. In general, the term “selective and high affinity PBP binder” also includes those binders where a substantial fraction of binder selectively binds to only one PBP with high affinity.
The reaction mixtures were then denatured with 20 μl each of SDS-denaturing solution at 100° C. for 3 min PBPs were separated through 10% SDS polyacrylamide gel electrophoresis (Bio-Rad Laboratories, Hercules, Calif.). The protein gels were rinsed in water immediately after electrophoresis.

P. mirabilis G 186 [3] = experiment: Minimum filamentation / spheroplasting concentration; conditions: P. mirabilis G 186 (NDM, TEM); minimum spheroplasting concentration
Description: The term “MSC” as used herein refers to minimum spheroplasting concentration, which is the minimum concentration of an antibacterial agent at which about 80% of bacterial cells covert into spheroplasts.
The term “MFC” as used herein refers to minimum filamentation concentration, which is the minimum concentration of an antibacterial agent at which about 80% of bacterial cells get elongated to form filament like structures.

## O=C(NNC(=O)[C@@H]1CC[C@@H]2CN1C(=O)N2OS(=O)(=O)O)[C@@H]1CCCNC1 [Compound of Formula (III), trans-(2S,5R)-sulfuric acid mono-[2-(N′—[(R)-piperidin-3-carbonyl]-hydrazino Carbonyl)-7-oxo-1,6-diaza-bicyclo[3.2.1]oct-6-yl] Ester]
P. mirabilis G 186 [1]
  MIC: > 64 µg/mL
K. pneumoniae B88
  MIC: 8 µg/mL
[2]; 0 hour
  Bacterial count: 5.5 log (CFU/ml)
[2]; 2 hours
  Bacterial count: 5.4 log (CFU/ml)
[2]; 4 hours
  Bacterial count: 3.5 log (CFU/ml)
[2]; 6 hours
  Bacterial count: 3.6 log (CFU/ml)
K pneumoniae J 101
  MIC: > 32 µg/mL
K pneumoniae J 102
  MIC: > 32 µg/mL
K pneumoniae J 104
  MIC: > 32 µg/mL
K pneumoniae J 105
  MIC: > 32 µg/mL
Pseudomonas PBP 1A
  IC50: > 10.2 µM
Pseudomonas PBP 5/6
  IC50: > 10.2 µM
E. coli ATCC 25922; 0 hour
  zone of inhibition at 40 µg/mL: 16 mm
E. coli ATCC 25922; 1 hour
  zone of inhibition at 40 µg/mL: 16 mm
E. coli ATCC 25922; 2 hours
  zone of inhibition at 40 µg/mL: 16 mm
E. coli ATCC 25922; 24 hours
  zone of inhibition at 40 µg/mL: 16 mm
Pseudomonas PBP 3
  IC50: > 10.2 µM
P. mirabilis G 186 [3]
  MSC: 0.25 µg/mL
